Where two headings read alike, the source gives them in different places.
System: Direct Seeded Rice and weed species
Test: Postemergence herbicidal activity in direct seeded rice, visual rating after 20-22 days and probit GR20/GR50/GR80/GR90 (Table 14)
Type: in vivo
Details: for pest or weed control at 17.5 g/ha / pest or weed control at 35 g/ha / pest or weed control at 70 g/ha: post-emergence, 504 h, postemergence; for pest or weed control at 17.5 g/ha: 17.5 g ai/ha; for pest or weed control at 35 g/ha: 35 g ai/ha; for pest or weed control at 70 g/ha: 70 g ai/ha
From the text: Herbicidal evaluations were made visually on a scale of 0 to 100 where 0 represents no activity and 100 represents complete plant death. Seeds or nutlets of the desired test plant species were planted in a soil matrix prepared by mixing a loam soil (43 percent silt, 19 percent clay, and 38 percent sand, with a pH of about 8.1 and an organic matter content of about 1.5 percent) and river sand in an 80 to 20 ratio. The soil matrix was contained in plastic pots with a surface area of 139.7 cm^2. When required to ensure good germination and healthy plants, a fungicide treatment and/or other chemical or physical treatment was applied. The plants were grown for 10-17 d in a greenhouse with an approximate 14-h photoperiod which was maintained at about 29° C. during the day and 26° C. during the night. Nutrients and water were added on a regular basis and supplemental lighting was provided with overhead metal halide 1000-Watt lamps as necessary. The plants were employed for testing when they reached the second or third true leaf stage. A weighed amount, determined by the highest rate to be tested, of each test compound was placed in 25 mL glass vials and dissolved in a volume of 97:3 v/v acetone-DMSO to obtain 12× stock solutions. […] The concentrated stock solutions were added to the spray solutions so that the final acetone and DMSO concentrations were 16.2% and 0.5%, respectively. Spray solutions were diluted to the appropriate final concentrations with the addition of 10 mL of an aqueous mixture of 1.5% (v/v) Agri-dex crop oil concentrate. The final spray solutions contained 1.25% (v/v) Agri-dex crop oil concentrate. Compound requirements are based upon a 12 mL application volume at a rate of 187 L/ha. Formulated compounds were applied to the plant material with an overhead Mandel track sprayer equipped with […] nozzles calibrated to deliver 187 L/ha over an application area of 0.503 square meters (m^2) at a spray height of 18 inches (43 cm) above average plant canopy height. Control plants were sprayed in the same manner with the solvent blank. The treated plants and control plants were placed in a greenhouse as described above and watered by sub-irrigation to prevent wash-off of the test compounds. After 20-22 days, the condition of the test plants, compared with that of the untreated plants, was determined visually and scored on a scale of 0 to 100 percent where 0 corresponds to no injury and 100 corresponds to complete kill and are presented as indicated in Table 4. By applying the well-accepted probit analysis as described by J. Berkson in Journal of the American Statistical Society, 48, 565 (1953) and by D. Finney in “Probit Analysis” Cambridge University Press (1952), herbicidal injury of a specific compound at various rates can be used to calculate GR20, GR50, GR80 and GR90 values, which are defined as growth reduction factors that correspond to the effective dose of herbicide required to provide plant growth reduction (GR) of 20 percent, 50 percent, 80 percent and 90 percent, respectively. Probit analysis was applied to data collected from multiple dose rates of individual compounds utilizing the procedures explained in the following examples. The data for some of the dose rates and analysis of all of the dose rates are captured in the following tables.

[1] = BRAPP (broadleaf signalgrass, Brachiaria platyphylla), read-out: Visual Growth Reduction (%) 21 Days After Application BRAPP
[2] = CYPDI (small-flower flatsedge, Cyperus difformis), read-out: Visual Growth Reduction (%) 21 Days After Application CYPDI
[3] = CYPES (yellow nutsedge, Cyperus esculentus), read-out: Visual Growth Reduction (%) 21 Days After Application CYPES
[4] = CYPIR (rice flatsedge, Cyperus iria), read-out: Visual Growth Reduction (%) 21 Days After Application CYPIR
[5] = DIGSA (large crabgrass, Digitaria sanguinalis), read-out: Visual Growth Reduction (%) 21 Days After Application DIGSA
[6] = ECHCG (barnyardgrass, Echinochloa crus-galli), read-out: Visual Growth Reduction (%) 21 Days After Application ECHCG
[7] = ECHCO (junglerice, Echinochloa colonum), read-out: Visual Growth Reduction (%) 21 Days After Application ECHCO
[8] = LEFCH (Chinese sprangletop, Leptochloa chinensis), read-out: Visual Growth Reduction (%) 21 Days After Application LEFCH
[9] = ORYSJ (Oryza sativa, rice crop), read-out: Visual Growth Reduction (%) 21 Days After Application ORYSJ
[10] = ORYSK (Oryza sativa, rice crop), read-out: Visual Growth Reduction (%) 21 Days After Application ORYSK
[11] = SCPJU (Japanese bulrush, Schoenoplectus juncoides Roxb.), read-out: Visual Growth Reduction (%) 21 Days After Application SCPJU
[12] = SEBEX (hemp sesbania, Sesbania exaltata), read-out: Visual Growth Reduction (%) 21 Days After Application SEBEX

COc1c(N)nc(-c2ccc3c(c2F)OC(F)(F)O3)nc1C(=O)O [Compound 66] was tested, and the “GR50 BRAPP” value (BRAPP (Brachiaria platyphylla), probit analysis, dose for 50 percent growth reduction) was 2 g ai/ha, the “GR80 BRAPP” value (BRAPP (Brachiaria platyphylla), probit analysis, dose for 80 percent growth reduction) was 7 g ai/ha and the “GR90 BRAPP” value (BRAPP (Brachiaria platyphylla), probit analysis, dose for 90 percent growth reduction) was 16 g ai/ha. The “GR50 CYPDI” value (CYPDI (Cyperus difformis), probit analysis, dose for 50 percent growth reduction) was 0.42 g ai/ha, the “GR80 CYPDI” value (CYPDI (Cyperus difformis), probit analysis, dose for 80 percent growth reduction) was 3 g ai/ha and the “GR90 CYPDI” value (CYPDI (Cyperus difformis), probit analysis, dose for 90 percent growth reduction) was 6 g ai/ha. The “GR50 CYPES” value (CYPES (Cyperus esculentus), probit analysis, dose for 50 percent growth reduction) was 0.0001 g ai/ha, the “GR80 CYPES” value (CYPES (Cyperus esculentus), probit analysis, dose for 80 percent growth reduction) was 0.0001 g ai/ha and the “GR90 CYPES” value (CYPES (Cyperus esculentus), probit analysis, dose for 90 percent growth reduction) was 0.0001 g ai/ha. The “GR50 CYPIR” value (CYPIR (Cyperus iria), probit analysis, dose for 50 percent growth reduction) was 9 g ai/ha, the “GR80 CYPIR” value (CYPIR (Cyperus iria), probit analysis, dose for 80 percent growth reduction) was 15 g ai/ha and the “GR90 CYPIR” value (CYPIR (Cyperus iria), probit analysis, dose for 90 percent growth reduction) was 19 g ai/ha. The “GR50 DIGSA” value (DIGSA (Digitaria sanguinalis), probit analysis, dose for 50 percent growth reduction) was 2 g ai/ha, the “GR80 DIGSA” value (DIGSA (Digitaria sanguinalis), probit analysis, dose for 80 percent growth reduction) was 21 g ai/ha and the “GR90 DIGSA” value (DIGSA (Digitaria sanguinalis), probit analysis, dose for 90 percent growth reduction) was 77 g ai/ha. The “GR50 ECHCG” value (ECHCG (Echinochloa crus-galli), probit analysis, dose for 50 percent growth reduction) was 3 g ai/ha, the “GR80 ECHCG” value (ECHCG (Echinochloa crus-galli), probit analysis, dose for 80 percent growth reduction) was 7 g ai/ha and the “GR90 ECHCG” value (ECHCG (Echinochloa crus-galli), probit analysis, dose for 90 percent growth reduction) was 12 g ai/ha. The “GR50 ECHCO” value (ECHCO (Echinochloa colonum), probit analysis, dose for 50 percent growth reduction) was 2 g ai/ha, the “GR80 ECHCO” value (ECHCO (Echinochloa colonum), probit analysis, dose for 80 percent growth reduction) was 6 g ai/ha and the “GR90 ECHCO” value (ECHCO (Echinochloa colonum), probit analysis, dose for 90 percent growth reduction) was 11 g ai/ha. The “GR50 LEFCH” value (LEFCH (Leptochloa chinensis), probit analysis, dose for 50 percent growth reduction) was 105 g ai/ha, the “GR80 LEFCH” value (LEFCH (Leptochloa chinensis), probit analysis, dose for 80 percent growth reduction) was 227 g ai/ha and the “GR90 LEFCH” value (LEFCH (Leptochloa chinensis), probit analysis, dose for 90 percent growth reduction) was 339 g ai/ha. For the same molecule, the “GR20 ORYSJ” value (ORYSJ (Oryza sativa, rice crop), probit analysis, dose for 20 percent growth reduction) was 2 g ai/ha, the “GR20 ORYSK” value (ORYSK (Oryza sativa, rice crop), probit analysis, dose for 20 percent growth reduction) was 11 g ai/ha and the “GR50 SCPJU” value (SCPJU (Schoenoplectus juncoides Roxb.), probit analysis, dose for 50 percent growth reduction) was 0.0001 g ai/ha. For the same molecule, the “GR80 SCPJU” value (SCPJU (Schoenoplectus juncoides Roxb.), probit analysis, dose for 80 percent growth reduction) was 0.0001 g ai/ha, the “GR90 SCPJU” value (SCPJU (Schoenoplectus juncoides Roxb.), probit analysis, dose for 90 percent growth reduction) was 0.0001 g ai/ha and the “GR50 SEBEX” value (SEBEX (Sesbania exaltata), probit analysis, dose for 50 percent growth reduction) was 8 g ai/ha. For the same molecule, the “GR80 SEBEX” value (SEBEX (Sesbania exaltata), probit analysis, dose for 80 percent growth reduction) was 19 g ai/ha, the “GR90 SEBEX” value (SEBEX (Sesbania exaltata), probit analysis, dose for 90 percent growth reduction) was 28 g ai/ha and the pest or weed control at 17.5 g/ha [1] was 85 to 94%. The pest or weed control at 35 g/ha [1] was 95 to 100%, the pest or weed control at 70 g/ha [1] was 95 to 100% and the pest or weed control at 17.5 g/ha [2] was 95 to 100%. The pest or weed control at 35 g/ha [2] was 95 to 100%, the pest or weed control at 70 g/ha [2] was 95 to 100% and the pest or weed control at 17.5 g/ha [3] was 95 to 100%. It also gave a pest or weed control at 35 g/ha [3] of 95 to 100%, a pest or weed control at 70 g/ha [3] of 95 to 100% and a pest or weed control at 17.5 g/ha [4] of 95 to 100%. It also gave a pest or weed control at 35 g/ha [4] of 95 to 100%, a pest or weed control at 70 g/ha [4] of 95 to 100% and a pest or weed control at 17.5 g/ha [5] of 75 to 84%. It also gave a pest or weed control at 35 g/ha [5] of 85 to 94%, a pest or weed control at 70 g/ha [5] of 85 to 94% and a pest or weed control at 17.5 g/ha [6] of 95 to 100%. It also gave a pest or weed control at 35 g/ha [6] of 95 to 100%, a pest or weed control at 70 g/ha [6] of 95 to 100% and a pest or weed control at 17.5 g/ha [7] of 95 to 100%. For the same molecule, the pest or weed control at 35 g/ha [7] was 95 to 100%, the pest or weed control at 70 g/ha [7] was 95 to 100% and the pest or weed control at 17.5 g/ha [8] was 0 to 29%. It also gave a pest or weed control at 35 g/ha [8] of 0 to 29%, a pest or weed control at 70 g/ha [8] of 30 to 44% and a pest or weed control at 17.5 g/ha [9] of 60 to 74%. It also gave a pest or weed control at 35 g/ha [9] of 85 to 94%, a pest or weed control at 70 g/ha [9] of 85 to 94% and a pest or weed control at 17.5 g/ha [10] of 30 to 44%. It also gave a pest or weed control at 35 g/ha [10] of 60 to 74%, a pest or weed control at 70 g/ha [10] of 85 to 94% and a pest or weed control at 17.5 g/ha [11] of 95 to 100%. For the same molecule, the pest or weed control at 35 g/ha [11] was 95 to 100%, the pest or weed control at 70 g/ha [11] was 95 to 100% and the pest or weed control at 17.5 g/ha [12] was 60 to 74%. The pest or weed control at 35 g/ha [12] was 95 to 100% and the pest or weed control at 70 g/ha [12] was 95 to 100%.

From patent publication US9149038B2, “4-amino-6-(heterocyclic)picolinates and 6-amino-2-(heterocyclic)pyrimidine-4-carboxylates and their use as herbicides” (Dow AgroSciences LLC, priority 2013, dated 2015)
